Experimental findings from ChEMBL document CHEMBL1201862, “PubChem BioAssay data set” (2004) are described below.

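Values below derive from 48-hour exposures of cells grown in 96-well plates, with endpoints linearly interpolated between the two concentrations bracketing the appropriate inhibition level. GI50 is the concentration that inhibits growth by half.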 Calls of active or inactive are those of the source. Rule as the data show it: active = GI50 up to about 1.1 µM and inactive = higher. A value given as a limit tells only on which side of the number the result lay.

What all share (assay): growth of human tumour cells (NCI), 48 h
The test system of experiment [1] is DU-145.
The subject of experiment [2] is HOP-62.
The test system of experiment [3] is SNB-75.
Experiment [4] has as its system A549.
Experiment [5] has as its system PC-3.
For experiment [6], the system named is MCF7.
Experiment [7] relates to COLO 205.
Experiment [8] relates to Malme-3M.
Experiment [9] concerns LOX IMVI.
The subject of experiment [10] is SNB-19.
For experiment [11], the system named is U-251.
Experiment [12] deals with MDA-MB-231.
The subject of experiment [13] is OVCAR-4.
For experiment [14], the system named is CAKI-1.
Experiment [15] has as its system OVCAR-3.
Experiment [16] has as its system T47D.
For experiment [17], the system named is NCI-H522.
Experiment [18] concerns OVCAR-5.
Experiment [19] relates to UACC-62.

For `Cc1cc(S(=O)(=O)Nc2nnc3cnc4ccccc4n23)c(S)cc1Cl`, the GI50 in experiment [1] is > 100 µM (inactive); in [2], 79.4 µM (inactive); in experiment [3] it was > 54.5 µM (inactive); in experiment [4] it was > 100 µM (inactive); in experiment [5] it was > 100 µM (inactive); in experiment [6], > 100 µM (inactive). The GI50 in experiment [7] was > 100 µM (inactive); in experiment [8] it was > 100 µM (inactive); in experiment [9] it was > 100 µM (inactive); in [10], 51.9 µM (inactive); in [11] it was > 74.1 µM (inactive); in experiment [12], > 100 µM (inactive). Also, the GI50 in [13] is > 100 µM (inactive); in [14] it was > 100 µM (inactive); in experiment [15], 98.9 µM (inactive); in experiment [16], > 100 µM (inactive); in [17], > 100 µM (inactive); in [18] it was > 100 µM (inactive). The GI50 in experiment [19] was 79.1 µM (inactive).
For `CC1=C(C#N)C23C(=O)c4ccccc4C(=O)C2=C(O)C=CC3(O)N1` (stereo unspecified), the GI50 in experiment [1] is 2.98 µM (inactive); in experiment [2] it was 5.4 µM (inactive); in experiment [3], 2.3 µM (inactive); in experiment [4] it was 1.67 µM (inactive); in [5] it was 4.57 µM (inactive); in [6], 0.597 µM (active). The GI50 is 2.03 µM (inactive) in experiment [7]; 1.78 µM (inactive) in experiment [8]; 0.512 µM (active) in experiment [9]; 4.33 µM (inactive) in [10]; 8.39 µM (inactive) in [11]; 8.83 µM (inactive) in [12]. The GI50 in experiment [13] was 1.97 µM (inactive); in [14], 4.06 µM (inactive); in experiment [15], 0.861 µM (active); in [16], 7.4 µM (inactive); in [17], 1.48 µM (inactive); in experiment [18], 4.76 µM (inactive). The GI50 in [19] is 2.52 µM (inactive).
Turning to `O=C1C=CC(=O)c2ncccc21`, the GI50 was 7.8 µM (inactive) in [1]; 5.11 µM (inactive) in experiment [2]; 5.36 µM (inactive) in experiment [3]; 10.1 µM (inactive) in experiment [4]; 9.82 µM (inactive) in [5]; 4.42 µM (inactive) in [6]. Also, the GI50 in [7] was 2.58 µM (inactive); in experiment [8], 3.84 µM (inactive); in experiment [9], 2.09 µM (inactive); in experiment [10] it was 6.17 µM (inactive); in experiment [11], 3.18 µM (inactive); in [12], 2.47 µM (inactive). For the same molecule, the GI50 is 5.16 µM (inactive) in experiment [13]; 1.8 µM (inactive) in experiment [14]; 1.3 µM (inactive) in [15]; 2.19 µM (inactive) in experiment [16]; 1.89 µM (inactive) in experiment [17]; 17.5 µM (inactive) in experiment [18]. The GI50 in experiment [19] is 2.99 µM (inactive).
On to `Cc1cccc(-c2cc(O)c3ccc(C)nc3n2)c1`, for which the GI50 was 0.598 µM (active) in [1]; 0.546 µM (active) in experiment [2]; 0.233 µM (active) in [3]; 0.508 µM (active) in [4]; 0.261 µM (active) in experiment [5]; 0.443 µM (active) in experiment [6]. The GI50 in experiment [7] is 0.14 µM (active); in experiment [8] it was 0.296 µM (active); in [9] it was 0.556 µM (active); in experiment [10] it was 0.506 µM (active); in experiment [11] it was 0.389 µM (active); in experiment [12], 0.409 µM (active). The GI50 is 10 µM (inactive) in experiment [13]; 0.256 µM (active) in experiment [14]; 0.188 µM (active) in [15]; 0.249 µM (active) in experiment [16]; 0.194 µM (active) in [17]; 0.723 µM (active) in [18]. Also, the GI50 in experiment [19] is 0.41 µM (active).
